According to patent US20210369595A1, “Cosmetic composition comprising an aqueous extract of rose fruit” (L V M H RECHERCHE, priority 2018, published 2021):

Tests used:
[1] = test system: Collagen 3 (COL3A1); assay: TLDA gene expression in NHF: COL3A1; type: cell-based, human
Description: (§1) The cell culture medium is removed and 250 μL of RLT lysis buffer (provided in the Nucleospin RNA trace kit, Macherey-Nagel) is added. The cells are scraped with a Cell Scraper and then the cell lysate is recovered in a 1.2 mL deepwell (provided in the Nucleospin RNA kit). The total RNAs are extracted according to the defined protocols.
(§2) The total RNA solutions obtained are assayed, and their quality checked, using a microplate reader, the spectrostarNANO (BMG Labtech) coupled to the MicrolabSTAR. This apparatus is connected to the computer controlling the Robotics platform and has the specific software for the analysis of the results (MARS software). The technique requires a 384-well microplate (LoBase), a positive control (RNA 250, AM7155, Thermofisher) to validate the pipetting performed by the robot as well as the values generated by the spectrostarNANO reader. • Synthesis of complementary DNA […]
(§3) Real-time quantitative PCR can be exploited if its efficiency is between 90% and 110%. For each sample, the number of cycles at which the signal appears is determined by the SDS 2.3 software. […]
(§4) In the TLDA RT-PCR method, quantification is performed using the comparative method of ΔΔCt. The relative quantification (RQ) values obtained correspond to the amplitude level (x times more or less than the control) of the expression compared with our control, here the non-irradiated. […]

[2] = test system: Fibrillin 1 (FBN1); assay: TLDA gene expression in NHF: FBN1; type: cell-based, human; conditions: Vit C 50 μg/mL (positive control), control = 1
Description: as §1, §2, §3, §4

[3] = test system: Elastin (ELN); assay: TLDA gene expression in NHF: ELN; type: cell-based, human; conditions: Vit C 50 μg/mL (positive control), control = 1
Description: as §1, §2, §3, §4

[4] = test system: Matrix Metalloproteinase 3 (MMP3); assay: TLDA gene expression in NHF: MMP3; type: cell-based, human; conditions: Vit C 50 μg/mL (positive control), control = 1
Description: as §1, §2, §3, §4

[5] = test system: Emilin 1 (Emilin1); assay: TLDA gene expression in NHF: Emilin1; type: cell-based, human
Description: as §1, §2, §3, §4

[6] = test system: Collagen 5 (COL5A1); assay: TLDA gene expression in NHF: COL5A1; type: cell-based, human
Description: as §1, §2, §3, §4

[7] = test system: Collagen 1 (COL1A1); assay: TLDA gene expression in normal human fibroblasts (NHF): COL1A1; type: cell-based
Description: as §1, §2, §3, §4

[8] = test system: Procollagen C endopeptidase enhancer (PCOLCE); assay: TLDA gene expression in NHF: PCOLCE; type: cell-based, human; conditions: Vit C 50 μg/mL (positive control), control = 1
Description: as §1, §2, §3, §4

[9] = test system: Lysyl oxidase like 1 (LOXL1); assay: TLDA gene expression in NHF: LOXL1; type: cell-based, human; conditions: Vit C 50 μg/mL (positive control), control = 1
Description: as §1, §2, §3, §4

[10] = Vit C 50 μg/mL (positive control), control = 1

- MMP3 expression, RQ [4]: 1.205
- PCOLCE expression, RQ [8]: 1.156
- LOXL1 expression, RQ [9]: 1.202
SMILES: O=C1O[C@H]([C@@H](O)CO)C(O)=C1O [Vit C]
- COL3A1 expression, RQ [1, 10]: 2.599
- increase of Collagen 3 expression ([1]; Vit C (50 μg/mL)): +160%
- FBN1 expression, RQ [2]: 0.989
- ELN expression, RQ [3]: 1.016
- Emilin1 expression, RQ [5, 10]: 2.509
- increase of Emilin 1 expression ([5]; Vit C (50 μg/mL)): +151%
- COL5A1 expression, RQ [6, 10]: 1.911
- increase of Collagen 5 expression ([6]; Vit C (50 μg/mL)): +91%
- COL1A1 expression, RQ [7, 10]: 3.471
- increase of Collagen 1 expression ([7]; Vit C (50 μg/mL)): +247%
